Experiments:
[1] = Bulk density of crystalline loracarbef monohydrate; assay type: physicochemical
[2] = fine, fluffy powder obtained by the process disclosed in EP 0,369,686; cited from earlier work

- bulk density ([1]; crystalline monohydrate prepared from mono N,N-dimethylacetamide monohydrate solvate (Example 2)): greater than 0.6 g/ml
- bulk density ([1]; crystalline monohydrate prepared from mono N-methyl pyrrolidone monohydrate solvate (Example 4)): greater than 0.6 g/ml
- bulk density ([1]; monohydrate prepared from mono N,N-dimethylacetamide monohydrate solvate or mono N-methylpyrrolidone monohydrate solvate): ≥ 0.6 g/mL
SMILES: N[C@@H](C(=O)N[C@@H]1C(=O)N2C(C(=O)O)=C(Cl)CC[C@H]12)c1ccccc1.O [crystalline loracarbef monohydrate, (6R,7S)-7-[(R)-2-amino-2-phenylacetamido]-3-chloro-8-oxo-1-azabicyclo [4.2.0]oct-2-ene-carboxylic acid, monohydrate]
- density [2]: approximately 0.2 g/ml
